Laboratory results: PubChem BioAssay (NCI)
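96-well plates; 48 h exposure; 5 concentrations. Endpoints by linear interpolation between flanking doses. Not reached: highest tested concentration assigned. TGI: total growth inhibition.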

What was measured:
Assay in all cases: NCI anticancer screen, dose series, 48 h
BT-549 breast = test system: BT-549 breast
SK-MEL-28 melanoma = test system: SK-MEL-28 melanoma
UACC-62 melanoma = test system: UACC-62 melanoma
PC-3 prostate = test system: PC-3 prostate
OVCAR-8 ovarian = test system: OVCAR-8 ovarian
NCI-H460 lung = test system: NCI-H460 lung
HL-60(TB) leukemia = test system: HL-60(TB) leukemia
SK-OV-3 ovarian = test system: SK-OV-3 ovarian
A549 NSCLC = test system: A549 NSCLC
HT29 colon = test system: HT29 colon
OVCAR-3 ovarian = test system: OVCAR-3 ovarian

Compound | TGI (BT-549 breast) [µM] | TGI (SK-MEL-28 melanoma) [µM] | TGI (UACC-62 melanoma) [µM] | TGI (PC-3 prostate) [µM] | TGI (OVCAR-8 ovarian) [µM] | TGI (NCI-H460 lung) [µM] | TGI (HL-60(TB) leukemia) [µM] | TGI (SK-OV-3 ovarian) [µM] | TGI (A549 NSCLC) [µM] | TGI (HT29 colon) [µM] | TGI (OVCAR-3 ovarian) [µM]
N#Cc1c(-c2ccc([N+](=O)[O-])cc2)cc(-c2ccc(Nc3ccnc4cc(Cl)ccc34)cc2)nc1N | > 100 | > 100 | > 64.1 | 37.4 | > 23.3 | > 73.2 | 26 | 52.5 | 8.8 | 8.86 | 15.8
Cc1ccc(C(=O)N/N=C2/C(=O)c3c4ccccc4cc4cccc2c34)cc1 | > 100 | 97.4 | > 93.1 | > 100 | > 100 | > 77.2 | > 100 | > 75.9 | > 100 | 97.5 | 66.6
CC(C)=C[C@@H]1O[C@H](O)[C@@H]([C@H]2CC[C@@]3(C)[C@@H]4CC[C@H]5C(C)(C)C(=O)CC[C@@]56C[C@@]46CC[C@]23C)[C@@H]1O | 39.8 | 42.5 | 35.5 | 29.3 | 30.4 | 35.9 | 30.2 | 34.6 | 28.7 | 24.1 | 27.3
O=C(NC1(C(=O)O)CCCC1)c1ccccc1 | > 100 | > 100 | > 100 | > 100 | > 100 | > 100 | > 100 | > 100 | > 100 | > 100 | > 100
COc1cccc2cc(C(=O)NC34CC5CC(CC(C5)C3)C4)c(=N)oc12 | > 100 | > 100 | > 100 | > 100 | > 50.6 | > 100 | 29.6 | > 100 | > 100 | > 100 | > 73.2
C[n+]1ccccc1/C1=c2\cc/c([nH]2)=C(\c2cccc[n+]2C)C2=N/C(=C(/c3cccc[n+]3C)C3C=CC(N3)/C(c3cccc[n+]3C)=C3/C=CC1=N3)C=C2 | > 100 | > 100 | > 100 | > 100 | > 100 | > 100 | > 100 | > 100 | > 100 | > 100 | > 100
CN(C)c1ccc(/C=C(\NC(=O)c2ccccc2)C(=O)NC(Cc2c[nH]c3ccccc23)C(=O)O)cc1 (stereo unspecified) | > 100 | > 100 | > 100 | > 100 | > 100 | > 100 | > 100 | > 100 | > 100 | > 100 | > 100
[N-]=[N+]=Nc1ccc2c(c1)Sc1ccccc1N2CCCCN1CCN(C(=O)CCNC(=O)Cc2ccc(C(=O)c3ccccc3)cc2)CC1 | 10.6 | 9.89 | 19.6 | > 21.3 | > 100 | > 23.3 | 5.57 | > 100 | > 100 | 4.67 | 18.3
COc1ccc(/C=C/C(=O)Oc2ccccc2OC)cc1 | > 100 | > 100 | 97.9 | > 100 | > 71.9 | > 100 | > 32.5 | > 100 | > 100 | > 59 | > 100
O=C1/C(=C/c2ccccc2)CCCc2ccccc21 | 36 | 32.6 | 28.6 | 35.1 | 45.5 | 31.4 | 35.5 | > 100 | 67.1 | 36 | 35.2
NS(=O)(=O)c1nnc(NS(=O)(=O)c2ccc([N+](=O)[O-])cc2)s1 | > 100 | > 100 | > 100 | > 100 | > 100 | > 100 | > 100 | > 100 | > 100 | > 100 | > 100
CC(CC[C@@]1(O)OC2C[C@H]3[C@@H]4CC[C@H]5CC(OC6OC(CO)C(OC7OC(CO)C(O)C(OC8OCC(O)C(O)C8O)C7OC7OC(CO)C(O)C(O)C7O)C(O)C6O)[C@H](O)CC5(C)[C@H]4CCC3(C)C2[C@@H]1C)COC1OC(CO)C(O)C(O)C1O (stereo partly specified) | 6.64 | > 50 | 45.6 | > 50 | > 50 | 10.2 | 29.1 | 43.3 | 11.1 | 33.4 | 23.1
CCNC(=S)NNC(=O)CSc1nc2ccc(I)cc2c(=O)n1Cc1ccccc1 | > 100 | > 100 | > 100 | > 100 | > 70.4 | > 100 | > 34.7 | > 100 | > 100 | > 100 | > 100
COc1cc(S(=O)(=O)Nc2ccc(-c3csc(N4C(=O)C(Cl)C4c4cccs4)n3)cc2)ccc1Cl (stereo unspecified) | > 100 | > 100 | > 100 | > 100 | > 100 | > 100 | > 100 | > 100 | > 100 | > 100 | > 100
Cc1cc(C)nc(NS(=O)(=O)c2ccc(NC(=O)c3cc([N+](=O)[O-])cc([N+](=O)[O-])c3)cc2)n1 | > 100 | > 100 | > 100 | > 100 | > 100 | > 100 | > 100 | > 100 | > 100 | > 100 | 98.4
COC(=O)[C@H](Cc1c[nH]c2ccccc12)NC(=O)c1ccccc1I | > 100 | > 100 | 34.1 | 59.3 | > 100 | > 100 | 54 | > 100 | > 100 | > 100 | 33.1
Nc1c2cc3ccc2nc2ccc(cc12)OCCOCCOCCOCCOCCOCCO3 | > 10 | > 10 | > 10 | > 10 | > 10 | > 10 | > 10 | > 10 | > 10 | > 10 | > 10
C=C(C)C(=O)OC1C[C@H](COC(C)=O)C2CC=C(CO)C2C2OC(=O)C(=C)[C@H]12 (stereo partly specified) | > 100 | > 100 | > 100 | > 100 | > 100 | > 100 | 76 | > 100 | > 100 | > 100 | > 100
COCOc1cc(OC)ccc1C/C(=N/O)C(=O)OC | > 100 | > 100 | > 100 | > 100 | > 100 | > 100 | > 100 | > 100 | > 100 | > 100 | > 100

Compound | TGI (BT-549 breast) [µM] | TGI (SK-MEL-28 melanoma) [µM] | TGI (UACC-62 melanoma) [µM] | TGI (PC-3 prostate) [µM] | TGI (OVCAR-8 ovarian) [µM] | TGI (NCI-H460 lung) [µM] | TGI (HL-60(TB) leukemia) [µM] | TGI (SK-OV-3 ovarian) [µM] | TGI (A549 NSCLC) [µM] | TGI (HT29 colon) [µM] | TGI (OVCAR-3 ovarian) [µM]
COc1ccc(CCN2C(=O)CC34C=CC(CC3C2=O)O4)cc1OC (stereo unspecified) | > 100 | > 100 | > 100 | > 100 | > 100 |  | > 100 | > 100 | > 100 | > 100 | > 100
Cc1cn(C2OC(CO)C(O)C2F)c(=O)[nH]c1=O (stereo unspecified) | > 100 | > 100 | > 100 | > 100 | > 100 | > 100 | > 100 | > 100 | > 100 | > 100 | > 100
O=C1C(Cl)=C(NCCF)C(=O)c2ncccc21 | 2.99 | 3.41 | 2.68 | 3.09 | 4.55 | 3.73 | > 10 | 3.74 | 4.07 | 7.29 | 5.45
COc1ccc(C2C3=C(COC3=O)OC(C)(C)Oc3cc4c(cc32)OCO4)cc1OC (stereo unspecified) | 99.5 | > 100 | > 75.4 | 72.4 | > 100 | > 100 | > 87.9 | > 100 | > 100 | > 100 | > 100
C=CC[C@]1(C2=NC(C)(C)CO2)c2ccccc2-c2ccccc2[C@H]1C(C)=O | 37.1 | > 54.5 | 19.2 | 27.7 | > 52.8 | 19.3 | 15.8 | > 54.9 | 36.8 | 17.3 | 9.08
O=C1NC(=Nc2ccccc2Cl)N/C1=C\c1ccc(Cl)cc1Cl | > 100 | > 100 | > 100 | > 100 | > 100 | > 100 | 1.84 | > 100 | > 100 | > 100 | > 100
O=C(C1OC1c1cccc([N+](=O)[O-])c1)C12CC3CC(CC(C3)C1)C2 (stereo unspecified) | 12.6 | 25.6 | 14.1 | 16.1 | 5.92 | 14.5 | 15.8 | 31.6 | 26.6 | 13 | 12.5
COc1ccc2oc(C(=O)N3CC(CCl)c4ccc(N)cc43)cc2c1 (stereo unspecified) | 1.85 | 2.55 | 0.496 | > 21.3 | 1.51 | 1.74 | 15.6 | 8.78 | > 100 | 1.44 | > 100
C[n+]1cn(-c2nc3ccccc3nc2[N-]S(=O)(=O)c2ccccc2)c2ccccc21 | > 100 | > 100 | > 100 | > 100 | > 100 | > 100 | > 100 | > 100 | > 100 | > 100 | > 100
CC(=O)NC1(C)C(C)C2CC1C(C)C2(C)C (stereo unspecified) | > 100 | > 100 | > 100 | > 100 | > 100 | > 100 | > 100 | > 100 | > 100 | > 100 | > 100
CC12CCC(CC1(Cl)Cl)C2 (stereo unspecified) | > 100 | > 100 | > 100 | > 100 | > 100 | > 100 | > 100 | > 100 | > 100 | > 100 | > 100
NCCNC(=O)CN(CC(=O)O)C1CCCCC1N(CC(=O)O)CC(=O)O (stereo unspecified) | > 100 | > 100 | > 100 | > 100 | > 100 | > 100 | > 100 | > 100 | > 100 | > 100 | > 100
Cc1ccc(SCC(OCn2cnc3c(Cl)nc(N)nc32)[C@H](C)F)cc1 (stereo partly specified) | > 100 | > 100 | > 100 | > 100 | > 100 | > 100 | 96.8 | > 100 | > 100 | > 100 | > 100
COc1cc(OC)c(C2(c3c(OC(C)C)c(=O)c3=O)SCCCS2)cc1OC | > 100 | > 100 | > 100 | > 100 | > 100 | > 100 | > 100 | > 100 | > 100 | > 100 | > 100
C#C[C@]1(O)CC[C@H]2[C@@H]3CCC4=C/C(=N/OC(=O)c5cccc6c(=O)c7ccccc7[nH]c56)CCC4[C@H]3CC[C@@]21CC (stereo partly specified) | 87.8 | > 100 | > 71.9 | > 96 | > 100 | > 100 | 11.7 | > 100 | > 100 | > 50.7 | > 61.1
C1=NCCOCCN=Cc2ccc(cc2)OCc2cccc(n2)COc2ccc1cc2 | > 100 | > 100 | > 100 | > 100 | > 100 | > 100 | > 100 | > 100 | > 100 | > 100 | > 100
COC(=O)CNC(=O)CCC(C)[C@H]1CCC2C3C(C[C@H](OC(C)=O)[C@@]21C)[C@@]1(C)CCC2(C[C@H]1C[C@H]3OC(C)=O)OOC1(CCCCC1)OO2 (stereo partly specified) | 3.9 | 22.1 | 21.7 | 6.29 | 4.16 | 3.63 | 5.1 | 25 | 3.36 | 7.44 | 3.77
CC(=O)c1c(O)n(-c2ccc(C)cc2)c(=O)c2c(N)n[nH]c12 | > 100 | > 100 | > 100 | > 100 | > 100 | > 100 | > 100 | > 100 | > 100 | > 100 | > 100
